Data on 6 compounds can be found in patent publication US5925668A, “Thioctic metabolites and methods of use thereof” (priority 1998, dated 1999).

Data set [1] in a line: Stability in aqueous solutions. In kind it is physicochemical. The note with it: compared to plasma.
The subject of the next data set is human erythrocytes. Particulars: cited from earlier work.
Data set [2] can be described thus: Plasma pharmacokinetics and metabolism of lipoic acid after oral administration of 1 gram R-lipoic acid to a healthy volunteer (HPLC/ECD). The data set is classed as in vivo, human. How it is done:
The HPLC system consisted of a pump (thermo separation products, Spectra SERLES P100,Breda, the Netherlands), an auto-injector (Gilson, Meyvis, model 232 XL, Bergen op Zoom, the Netherlands) with a […] sample loop and a dilutor (Gilson, Meyvis, model 401 C, Bergen op Zoom, the Netherlands). The system was equipped with an electrochemical detector (Coulochem ESA, model 5100 A, Interscience, Breda, the Netherlands) and an analytical cell (ESA, model 5010). Interscience, Breda, the Netherlands) which consisted of two cell compartments.
The separations were performed using a Hypersil C 18 column (125 mm×4.6 mm i.d., […] particle size) and a mobile phase of phosphate buffer (50 mM KH2 PO4 /H3 PO4, pH 2.7) and acetonitrile (65:35, v/v). Before use, the eluent was vacuum filtrated over a […] filter. The flow rate was 0.7 ml/min.
Sample Collection and Preparation
(§1) To a healthy volunteer (82 kg), who fasted overnight, 1 gram of R-lipoic acid (4 capsules of 250 mg) was administered orally. At several time points (0-5 hr), blood samples of 3 ml were taken from a venous cannula into Li-heparine containing tubes. The samples were centrifuged (2000 g at 4° C. for 5 min) and the plasma was analyzed immediately. The proteins in the plasma were precipitated by adding 1 ml ethanol and […] 85% (g/g) H3 PO4 to […] plasma. Thereafter, the sample was thoroughly mixed on a vortex mixer and placed on ice. After 15 min it was centrifuged at 2000 g for 10 min at 4° C. […] of the supernatant were brought onto the column. Quality control samples were prepared by spiking plasma with a small volume (less than 1%) of an ethanol solution of the compound.
For the elucidation of the structure of the metabolites, the plasma obtained at 69, 92 and 119 min was pooled (approximate total volume was 3 ml). The pooled plasma was acidified with 3 ml 3 M sulfuric acid. Thereafter, the sample was extracted twice with 12 ml HPLC-grade ethylacetate (Baker Phillipsburg, N.J.). After evaporation of the ethylacetate the compounds were methylated with diazomethane for 30 min at room temperature. Subsequently, the compounds were dissolved in […] ethanol. A volume of […] was injected on a GC/MS system using a split injection ratio of 1/15. The instrument used was a HP 5890 GC equipped with a HP 5970 mass selective detector. Gas chromatography was performed on a CPSil 5 CB WCOT capillary column (25 m, […] i.d., […]; Chrompack, Middelburg, the Netherlands). While the temperature of the injector and transfer line were kept at 250° C., two oven temperature programs were required to obtain satisfactory separation of all lipoic acid related components from endogenous plasma components. The oven temperature was programmed from 60° C. (kept for 2 min) to 180° C. (at 20° C./min) with an isothermal period (10 min) and subsequent temperature increase to 288° C. (at 20° C./min) and another isothermal period; this produced satisfactory results for all components except bisnorlipoic acid. Bisnorlipoic acid could be separated from background components by using a program from 60° C. (kept for 2 min) to 160° C. (at 20° C./min with an isothermal period (15 min) and subsequent raise to 288° C. (at 20° C./min). Detection was performed by using 70 eV impact ionization.
The Pharmocokinetic Analysis
A volunteer was given 1 gram R-lipoic acid. […] Somewhat later, an unknown metabolite was observed which eluted at 5.5 min (peak nr. 6 in FIG. 2). Thereafter, a second unknown appeared which eluted at 4.7 min (peak nr. 5 in FIG. 2). Subsequently, ca. 45 after administration, bisnorlipoic acid could be detected (peak nr. 4 in FIG. 2). […] The time course of the plasma concentrations of lipoic acid, the two unknown metabolites and bisnorlipoic acid are shown in FIG. 3. Around 45 min a maximum in the lipoic acid concentration is reached. At 75 min a diet containing a high amount of fat was consumed. […]

A further data set concerns human cells in culture. The note with it: cited from earlier work.
The format of data set [3] is in vitro ADME. How it is done: as §1
The stability of lipoic acid in plasma was evaluated by spiking plasma at 0.5 mg/ml and storing it at -25° C. […]
The stability of dihydrolipoic acid in plasma was also evaluated by spiking plasma at 0.5 mg/ml and storing it at -25° C. After approximately 20 hours, ca. 6% of the theoretical value was detected. […] Lipoic acid was also detected in the quality control samples of dihydrolipoic acid used for determination of the accuracy and precision. […] This means that the sample is immediately analyzed after blood sampling, and the pH is reduced to increase the stability of thiols. […]

Turning to `O=C(O)CCCC[C@@H](S)CCS` (racemic) [dihydrolipoic acid], in data set [1], the “stability in aqueous solutions” value is reported as “more stable”.
With `O=C(O)CCCC[C@@H]1CCSS1` (racemic) [lipoic acid, 1,2-dithiolane-3-pentanoic acid], in the data set on human erythrocytes, the “reduction of lipoic acid into dihydrolipoic acid” value was “reduction of lipoic acid was shown”. Also, the “free plasma concentration before administration” value in data set [2] (human, in vivo) is less than 7.8 ng/mL. Besides, in data set [2] (human, in vivo, po), the Cmax (usually the peak of the concentration-time curve) is 1150 ng/mL, the half life was found to be 0.933 h and the “time of first appearance in plasma” value came out at 30 min. The half-life (as a rule, the time in which the quantity being followed falls by half) in data set [2] (human, in vivo, po, half life) is roughly 1 h. Further, the Tmax (as a rule, the time at which the peak concentration occurs) in data set [2] (human, in vivo, po, time of (first) maximum in plasma concentration) is roughly 0.75 h. Also, the Tmax in data set [2] (human, in vivo, po, time of maximum plasma concentration) is 1.53 h. For the same compound, in data set [2] (oral 1 gram R-lipoic acid), the elimination kinetics result is reported as “first order kinetics”, the “presence in plasma after three hours” value was “essentially absent from the plasma” and the “time of first appearance in plasma” value is recorded as “Thirty minutes”. Besides, in the data set with human cells in culture, the “reduction of lipoic acid into dihydrolipoic acid” value is “reduction of lipoic acid was shown”. In data set [3], the stability in plasma result is reported as “stable in plasma for at least one week”.
For the compound `O=C(O)CC(O)CCC1CCSS1` (centres unmarked) [3-hydroxylipoic acid], in data set [2] (human, in vivo, po), the “order of reaching maximal plasma level” value was “reaches its maximal level before the compound from peak 6 reaches maximum”.
Regarding `O=C(O)CC(=O)CCC1CCSS1` (centres unmarked) [3-ketolipoic acid], in data set [2] (human, in vivo, po), the “order of reaching maximal plasma level” value was “reaches its maximum plasma level just before bisnorlipoic acid reaches its maximum” and the “time of maximum plasma concentration” value was 119 min.
On to `O=C(O)CCC1CCSS1` (centres unmarked) [bisnorlipoic acid], for which, in data set [2] (human, in vivo, po), the “time of first detection in plasma” value is “ca. 45” and the “time of maximum plasma concentration” value came to 189 min.
For the compound `O=C(O)C1CCSS1` (centres unmarked) [tetranorlipoic acid], the “detection in plasma after administration” value in data set [2] (human, in vivo, po) is “Neither dihydrolipoic acid nor tetranorlipoic acid were found”.
